The conditions of experiment [1]: cited from earlier work.
The subject of experiment [2] is cell lines that overexpress MRP7. Conditions: MRP7 overexpressing cell lines; cited from earlier work.
In experiment [3] the test system is doxorubicin- and paclitaxel-resistant Pgp-expressing tumor, Mam17/ADR. Conditions: cited from earlier work.
Experiment [4] relates to cell lines that overexpress Pgp. To be noted: Pgp overexpressing cell lines; cited from earlier work.
In experiment [5] the test system is isogenic HeLa-derived cell line that expresses the βIII isotype of tubulin. To be noted: cited from earlier work.
Experiment [6] concerns HeLa cells. Nature of the experiment: Cell cycle distribution by flow cytometry. To be noted: 18 h; 125 nM AF, 200 nM AI, 35 nM AJ. A general note: In flow cytometry, cells or beads pass a laser one at a time.

For the compound `CC(=O)O[C@@H]1[C@H]2[C@H]3[C@H]([C@H](OC(C)=O)[C@H](OC(C)=O)[C@]2(C)[C@@H]2[C@@H]1[C@]1(C)C(=C[C@H]2C)OC(=O)[C@@]1(C)O)[C@]1(C)[C@H](C[C@@H]2O[C@@H]2[C@@H]1OC(C)=O)C(=O)[C@@H]3O` [Taccalonolide A], the “in vivo antitumor activity” value in experiment [1] is on record as “have in vivo antitumor activity”. Also, the efficacy in vitro entry in experiment [2] and in experiment [4] was “effective” throughout. Also, the activity in vivo result in experiment [3] was “highly active”.
As to `CC(=O)O[C@H]1C(=O)[C@@]2(C)[C@H]([C@H](OC(=O)c3ccccc3)[C@]3(O)C[C@H](OC(=O)[C@H](O)[C@@H](NC(=O)c4ccccc4)c4ccccc4)C(C)=C1C3(C)C)[C@]1(OC(C)=O)CO[C@@H]1C[C@@H]2O` [paclitaxel], the “sensitivity of βIII-tubulin-overexpressing cell line compared with parental HeLa cells” value in experiment [5] is “less sensitive”. Besides, the “effect on cell cycle distribution / mitotic progression” value in experiment [6] is given as “mitotic arrest”.

(Values after patent US9340572B2, “Taccalonolide microtubule stabilizers” (THE BOARD OF REGENTS OF THE UNIVERSITY OF TEXAS SYSTEM, priority 2011, dated 2016).)
